In patent US20090202660A1, “Agents and Methods for Osteogenic Oxysterols Inhibition of Oxidative Stress on Osteogenic Cellular Differentiation” (The Regents of the University of California, priority 2005, published 2009):

How the values were obtained:
osteocalcin mRNA = assay: Northern blotting for osteocalcin mRNA in M2 cells; type: cell-based, mouse; conditions: for osteocalcin gene expression: M2 cells in osteogenic medium, up to 14 days; for osteocalcin expression, synergy with osteogenic oxysterols: BMP 50 ng/ml with 22S+20S (SS, 2.5 μM), eight days
Method: RNA isolation and Northern blot analysis—Following treatment of cells under appropriate experimental conditions, total RNA was isolated using the RNA isolation kit from Stratagene (La Jolla, Calif., U.S.A.). Total RNA ([…]) was run on a 1% agarose/formaldehyde gel and transferred to Duralon-UV membranes (Strategene, Calif., U.S.A.) and cross-linked with UV light. The membranes were hybridized overnight at 60 degree C. with ^32P-labeled mouse osteocalcin cDNA probe, mouse lipoprotein lipase (LPL), mouse adipocyte protein 2 (aP2) PCR-generated probes, human 28S or 18S rRNA probes obtained from Geneka Biotechnology (Montreal, Quebec, Canada) and Maxim Biotech (San Francisco, Calif., U.S.A.), respectively. The PCR products were generated using primer sets synthesized by Invitrogen (Carlsbad, Calif., U.S.A.) with the following specifications: mouse aP2 gene (accession no. M13261); sense (75-95) 5′-[…]-3′, antisense (362-383) 5′-[…]-3′, generating a PCR product of 309 base pairs. Mouse LPL (accession no. XM—134193); sense (1038-1058) 5′-[…]-3′, antisense (1816-1836) 5′-[…]-3′, generating a PCR product of 799 base pairs. […] Following hybridization, the blots were washed twice at room temperature with 2×SSC+0.1% SDS, and then twice at 60 degree C. with 0.5×SSC+0.1% SDS, and exposed to X-ray film. The extent of gene induction was determined by densitometry.
After 4 and 8 days, total RNA from duplicate samples was isolated and analyzed for osteocalcin (Osc) and 28S rRNA expression by Northern blotting as described. FIG. 3E is a radiogram of Northern blotting for osteocalcin mRNA in M2 cells exposed to a control or combination of oxysterols for 4 or 8 days. FIG. 3F is a bar graph depicting the relative demsometric units of osteocalcin mRNA in M2 cells exposed to a control or combination of oxysterols for 4 or 8 days. Data from densitometric analysis of the Northern blot is shown in (F) as the average of duplicate samples, normalized to 28S rRNA.
RNA Isolation and Northern Blot Analysis—Total RNA was isolated using the RNA isolation kit from Stratagene (La Jolla, Calif., USA). Northern blotting and analysis of osteocalcin mRNA and 18S rRNA expression was performed as previously described (23).

[1] = system: M2-10B4 marrow stromal cells; assay: Colorimetric alkaline phosphatase (ALP) activity assay on whole cell extracts; conditions: for alkaline phosphatase activity (induction): M2 cells in osteogenic medium, oxysterols 0.5-10 μM, 3-4 days; for alkaline phosphatase activity: ligands used at 10 μM, control 18±2, ±SD; for Enzyme Activity (units/mg total cellular protein) ± SD: alkaline phosphatase, oxysterols 5 μM, 4 days, untreated 6 ± 3; for inhibition of oxysterol-induced alkaline phosphatase activity: M2 cells pretreated with inhibitor, then 22R+20S oxysterols, 3 days; for alkaline phosphatase activity, synergy with oxysterols: marrow stromal cells, BMP with oxysterols
Method: Alkaline phosphatase activity assay: Colorimetric alkaline phosphatase (ALP) activity assay on whole cell extracts was performed as previously described.
Test 1: M2 cells at confluence were treated with control vehicle (C), or 10 µM oxysterols, in an osteogenic medium consisting of RPMI 1640 to which 10% fetal bovine serum (FBS), 50 µg/ml ascorbate and 3 mM beta-glycerophosphate (□GP) were added. After 3 days of incubation, alkaline phosphatase (ALP) activity was determined in cell homogenates by a colorimetric assay.
M2 cells at confluence were treated in osteogenic medium with control vehicle (C) or a combination of 22R and 20S oxysterols, at the indicated concentrations. ALP activity was measured after 3 days as described above.
Test 2: M2 cells were grown in RPMI medium containing 10% fetal bovine serum (FBS). At confluence, the cells were treated in RPMI containing 5% FBS plus ascorbate at 50 μg/ml and β-glycerophosphate at 3 mM to induce osteoblastic differentiation. Adipogenic differentiation was induced by treating the cells in growth medium plus 10˜M troglitazone. A vehicle (C) or oxysterol treatment was applied to cells in a variety of doses (in μM): 20S-Hydroxycholesterol, 25-Hydroxycholesterol, 22R-Hydroxycholesterol; 22S-Hydroxycholesterol; 7-ketocholesterol. Cells were always treated at 90% confluence. After 4 days, alkaline phosphatase activity was determined in whole cell lysates and normalized to protein. Alternatively, MSC cultures were prepared and treated with oxysterols as described above. Cells were treated at 90% confluence with the combination of 22R-Hydroxycholesterol and 20S-Hydroxycholesterol, each at 5 μM, for 4 to 96 hours. The oxysterols where removed and fresh media without oxysterols was added for a total duration of 96 hours. Alkaline phosphatase activity was measured in whole cell extracts and normalized to protein.
Cells were treated with the oxysterols (5 μM) for 4 days after which they were collected and analyzed by colorimetric assay for alkaline phosphatase activity. Results from a representative experiment are shown as the average of quadruplicate determination ±SD.

M2 cells = assay: Troglitazone-induced adipogenesis, oil Red O staining and adipocyte count; type: cell-based, mouse; conditions: troglitazone 10 μM, oxysterols 10 μM, 8-10 days
Method: (§1) Von Kossa and oil red O staining—Matrix mineralization in cell monolayers was detected by silver nitrate staining as previously described. Oil red O staining for detection of adipocytes was performed as previously described.
Test 1: M2 cells at 90% confluence were treated with vehicle (C), PPAR-γ activator, troglitazone 10 uM (Tro), alone or in combination with 10 μM oxysterols 20S-, 22R-, or 25S-hydroxycholesterol. After 8 days, adipocytes were identified by oil Red 0 staining and quantified by counting under a phase contrast microscope. FIG. 6A is a bar graph depicting the effect of oxysterols on reducing adipogenesis of MSC.
Test 2: (A) M2 cells at confluence were treated in RPMI containing 10% FBS with control vehicle or 10 μM troglitazone (Tro) in the absence or presence of 10 μM 20S or 22S oxysterols. After 10 days, adipocytes were visualized by oil Red O staining and quantified by light microscopy, shown in (B). […] (C) M2 cells were treated at confluence with 10 μM Tro, alone or in combination with 10 μM 20S oxysterol. After 10 days, total RNA was isolated and analyzed for lipoprotein lipase (LPL), adipocyte P2 gene (aP2) or 18S rRNA expression by Northern blotting as described (Ref). Data from densitometric analysis of the Northern blot is shown in (D) as the average of duplicate samples, normalized to 18S rRNA.

marrow stromal cells = assay: Markers of osteogenic differentiation in marrow stromal cells (ALP, osteocalcin mRNA, mineral formation); type: cell-based, mouse; conditions: for osteogenic property (markers of osteoblastic differentiation): alone or in combination with originally described oxysterols
Method: Next, a combination of 22R and 20S oxysterols (RS, 2.5 μM each) were added in the presence or absence of SC as indicated. After 3 days, ALP activity was measured as described earlier. […] (B) M2 cells were treated as described in (A) and after 10 days matrix mineralization in cultures was quantified by a ^45Ca incorporation assay as described earlier. […] (C) M2 cells were pretreated with 20 μM SC for 4 hours, followed by the addition of RS in the presence or absence of SC as described above. After 8 days, total RNA was isolated and analyzed for osteocalcin (Osc) and […] expression by Northern blotting as previously described. Data from densitometric analysis of the Northern blot is shown in (D) as the average of duplicate samples, normalized to 18S rRNA. (E) M2 cells at confluence were pretreated for 2 hours with control vehicle (C), or PLA2 inhibitors ACA (25 μM) and AACOCF3 (AAC, 20 μM), in osteogenic medium. Next, a combination of 22R and 20S oxysterols (RS, 2.5 μM) was added in the presence or absence of the inhibitors as indicated. After 3 days, ALP activity was measured as previously described. […] (F) M2 cells were treated as described in (E). After 10 days, matrix mineralization in cultures was quantified using a ^45Ca incorporation assay as previously described. Results from a representative of three experiments are shown, reported as the mean of quadruplicate determinations±SD, normalized to protein concentration (p<0.01 for RS vs. RS+ACA and RS+AAC).
The purpose of the study was to identify other osteogenic and anti-adipogenic oxysterols based on the chemical structure of previously identified oxysterols. We tested the ability of such candidate oxysterol molecules to induce the formation of osteoblastic cells in cultures of marrow stromal cells, which are progenitors of osteoblastic cells that make bone. In order to assess osteogenic differentiation of cells, one or more markers of osteogenic differentiation were measured in untreated cells and cells treated with the test oxysterols. These markers included: alkaline phosphatase activity, osteocalcin mRNA expression and mineral formation in cultures of marrow stromal cells. Activation of either one or more than one marker by a single or combination oxysterols is indicative of their osteogenic property.

[2] = system: M2-10B4 marrow stromal cells; assay: Matrix mineralization (45Ca incorporation assay, von Kossa staining); type: cell-based, mouse; conditions: for mineralization: M2 cells in osteogenic medium, 10-14 days; for inhibition of oxysterol-induced mineralization: M2 cells pretreated with inhibitor, then 22R+20S oxysterols, 10 days; for mineralization, synergy with oxysterols: marrow stromal cells, BMP with oxysterols
Method: as §1
^45Ca incorporation assay—Matrix mineralization in cell monolayers was quantified using the ^45Ca incorporation assay as previously described.
After 14 days, mineralization was identified by a von Kossa staining, which appears black. FIG. 3C is a depiction of von Kossa staining of M2 cells exposed to various conditions. […]

For `CC(C)CCC[C@@H](C)[C@H]1CC[C@H]2[C@@H]3CC=C4[C@@H](O)[C@@H](O)CC[C@]4(C)[C@H]3CC[C@]12C` [4beta-hydroxycholesterol], the “osteocalcin mRNA” value (osteocalcin mRNA; M2-10B4 cells treated for eight days, FIG. 20) was “moderate increase”.

`CC(C)CCC[C@@H](C)[C@H]1CC[C@H]2[C@@H]3C(=O)C=C4C[C@@H](O)CC[C@]4(C)[C@H]3CC[C@]12C` [7-ketocholesterol, reference compound] was tested, and the “alkaline phosphatase activity (induction)” value [1] was “did not induce alkaline phosphatase activity” and the inhibition of adipogenesis (M2 cells) was “unable to inhibit adipogenesis”.

In the case of `CC(C)CCC[C@@H](C)[C@H]1CC[C@H]2[C@@H]3[C@H](O)C=C4C[C@@H](O)CC[C@]4(C)[C@H]3CC[C@]12C` [7alpha-hydroxycholesterol, reference compound], the “osteogenic property (markers of osteoblastic differentiation)” value (marrow stromal cells) is reported as “did not appear to affect any measures of osteoblastic differentiation”.

In the case of `CC(C)CC[C@@H](O)[C@@H](C)[C@H]1CC[C@H]2[C@@H]3CC=C4C[C@@H](O)CC[C@]4(C)[C@H]3CC[C@]12C` [22R-hydroxycholesterol], the osteocalcin gene expression (osteocalcin mRNA) is reported as “unable to induce”, the mineralization [2] is reported as “unable to induce” and the “alkaline phosphatase activity (induction)” value [1] is reported as “induced alkaline phosphatase activity”. For the same molecule, the alkaline phosphatase activity ([1]; M2 cells) was 45±5 activity units/mg protein and the inhibition of adipogenesis (M2 cells) was “inhibited adipogenesis”.

`CC(C)CC[C@H](O)[C@@H](C)[C@H]1CC[C@H]2[C@@H]3CC=C4C[C@@H](O)CC[C@]4(C)[C@H]3CC[C@]12C` [22S-hydroxycholesterol] was tested, and the osteocalcin gene expression (osteocalcin mRNA) was “unable to induce”, the mineralization [2] was “unable to induce” and the “alkaline phosphatase activity (induction)” value [1] was “induced alkaline phosphatase activity”. The inhibition of adipogenesis (M2 cells) was “inhibited adipogenesis”.

`CC(C)C(O)CC[C@@H](C)[C@H]1CC[C@H]2[C@@H]3CC=C4C[C@@H](O)CC[C@]4(C)[C@H]3CC[C@]12C` (stereo partly shown) [24-hydroxycholesterol] was tested, and the “osteogenic property (markers of osteoblastic differentiation)” value (marrow stromal cells) was “osteoinductive” and the “Enzyme Activity (units/mg total cellular protein) ± SD” value [1] was 250 ± 20 units/mg total cellular protein.

With `C[C@H](CC[C@@H]1OC1(C)C)[C@H]1CC[C@H]2[C@@H]3CC=C4C[C@@H](O)CC[C@]4(C)[C@H]3CC[C@]12C` [24S,25-epoxycholesterol] the “osteogenic property (markers of osteoblastic differentiation)” value (marrow stromal cells) was “osteoinductive” and the “Enzyme Activity (units/mg total cellular protein) ± SD” value [1] was 1,588 ± 19 units/mg total cellular protein.

For `C[C@@H](CO)CCC[C@@H](C)[C@H]1CC[C@H]2[C@@H]3CC=C4C[C@@H](O)CC[C@]4(C)[C@H]3CC[C@]12C` [26-hydroxycholesterol], the “osteogenic property (markers of osteoblastic differentiation)” value (marrow stromal cells) was “osteoinductive” and the “Enzyme Activity (units/mg total cellular protein) ± SD” value [1] was 655 ± 93 units/mg total cellular protein.

With `CCCCC/C=C\C/C=C\C/C=C\C/C=C\CCCC(=O)C(F)(F)F` [AACOCF3, reference compound] the “inhibition of oxysterol-induced mineralization” value [2] was “inhibited” and the “inhibition of oxysterol-induced alkaline phosphatase activity” value [1] was “inhibited”.

In the case of `CCCCCc1ccc(/C=C/C(=O)Nc2ccccc2C(=O)O)cc1` [ACA, reference compound], the “inhibition of oxysterol-induced mineralization” value [2] is reported as “inhibited” and the “inhibition of oxysterol-induced alkaline phosphatase activity” value [1] is reported as “inhibited”.

In the case of `CS(=O)(=O)Nc1ccc([N+](=O)[O-])cc1OC1CCCCC1` [NS-398, reference compound], the highest non-toxic dose (marrow stromal cells; M2 cells) is reported as 20 µM and the “inhibition of the osteogenic effects of oxysterol combinations” value (marrow stromal cells; SC-560 at 1-20 μM, NS-398 at 20 μM) is reported as “negligible inhibitory effects”.

With `COc1cccc(-c2cc(=O)c3ccccc3o2)c1N` [PD98059, reference compound] the “inhibition of oxysterol-induced osteocalcin gene expression” value (osteocalcin mRNA; M2 cells pretreated with inhibitor, then 22R+20S oxysterols, 8 days) was “not” and the “inhibition of oxysterol-induced mineralization” value [2] was “inhibited”.

With `O=S(=O)(c1ccccc1)N(CC(F)(F)F)c1ccc(C(O)(C(F)(F)F)C(F)(F)F)cc1` [TO, TO-901317, reference compound] the osteocalcin gene expression (osteocalcin mRNA) was “did not induce”, the mineralization [2] was “did not induce” and the “inhibition of alkaline phosphatase activity” value ([1]; M2 cells, TO at 1-10 μM) was “dose-dependent inhibition”. For the same molecule, the alkaline phosphatase activity ([1]; M2 cells) was 3±0.5 activity units/mg protein.

BMP14: bone morphogenic protein 14 was tested, and the “osteocalcin expression, synergy with osteogenic oxysterols” value (osteocalcin mRNA) was “synergistic induction”, the “mineralization, synergy with oxysterols” value [2] was “synergistically induced” and the “alkaline phosphatase activity, synergy with oxysterols” value [1] was “synergistically induced”.

B1: BMP7: bone morphogenic protein 7 (protein, UniProt P18075 293-431, looked up)
Bone morphogenetic protein 7: STGSKQRSQNRSKTPKNQEALRMANVAENSSSDQRQACKKHELYVSFRDLGWQDWIIAPEGYAAYYCEGECAFPLNSYMNATNHAIVQTLVHFINPETVPKPCCAPTQLNAISVLYFDDSSNVILKKYRNMVVRACGCH
In the case of B1, the “osteocalcin expression, synergy with osteogenic oxysterols” value (osteocalcin mRNA) is reported as “synergistic induction”, the “mineralization, synergy with oxysterols” value [2] is reported as “synergistically induced” and the “alkaline phosphatase activity, synergy with oxysterols” value [1] is reported as “synergistically induced”.
